According to BindingDB's records for doi:10.1111/j.1747-0285.2009.00909.x (Queen's University, 2010):
pIC50: −log10 of the molar value. Where “and” joins values, the source holds several entries; their conditions need not be identical. Equal entries are not always repeated.

What was measured:
Heme oxygenase 1 = target: T1, Heme oxygenase 1 (Rattus norvegicus, UniProt P06762); experiment: Heme Oxygenase; details: pH 7.4; 25 °C
T1 sequence (P06762 whole entry): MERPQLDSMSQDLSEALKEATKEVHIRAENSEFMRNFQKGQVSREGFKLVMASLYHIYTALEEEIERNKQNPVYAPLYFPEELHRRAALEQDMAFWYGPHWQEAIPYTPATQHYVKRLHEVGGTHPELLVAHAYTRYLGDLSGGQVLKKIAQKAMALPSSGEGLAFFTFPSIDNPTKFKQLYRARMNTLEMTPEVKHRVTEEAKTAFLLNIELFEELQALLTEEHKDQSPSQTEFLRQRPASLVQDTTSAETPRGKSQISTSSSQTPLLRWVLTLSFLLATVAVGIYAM
Method: (§1) Heme oxygenase activity in rat spleen and brain microsomal fractions was determined by the quantitation of CO formed from the degradation of methemalbumin (heme complexed with albumin). Spleen and brain (SpragueâDawley rats) microsomal fractions were prepared according to the procedure outlined by Appletonet al. Protein concentration of microsomal fractions was determined by a modification of the Biuret method. Incubations for HO activity analysis were performed under conditions for which the rate of CO formation [pmol CO â (min mg protein)] was linear with respect to time and microsomal protein concentration. […] […]

Heme oxygenase 2 = target: T2, Heme oxygenase 2 (Rattus norvegicus, UniProt P23711); experiment: Heme Oxygenase; details: pH 7.4; 25 °C
T2 sequence (P23711 whole entry): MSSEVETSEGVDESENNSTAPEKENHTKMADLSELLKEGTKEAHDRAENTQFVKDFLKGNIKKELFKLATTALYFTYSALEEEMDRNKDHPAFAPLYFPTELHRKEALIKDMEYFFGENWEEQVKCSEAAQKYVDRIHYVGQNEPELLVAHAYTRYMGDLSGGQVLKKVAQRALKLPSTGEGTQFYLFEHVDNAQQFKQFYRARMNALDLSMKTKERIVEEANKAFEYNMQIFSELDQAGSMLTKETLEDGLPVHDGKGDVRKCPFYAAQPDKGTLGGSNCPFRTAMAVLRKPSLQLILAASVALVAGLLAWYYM
Method: as §1

Row | pIC50 (Heme oxygenase 1) | pIC50 (Heme oxygenase 2) | Structure (SMILES)
1 | < 4.00 | < 4.00 | CSc1ncnn1CC(=O)CCc1ccccc1 [1-azolyl-4-phenyl-2-butanone, 35]
2 | < 4.00 | < 4.00 | O=C(CCc1ccccc1)Cn1nc(Br)nc1Br [1-azolyl-4-phenyl-2-butanone, 36]
3 | < 4.00 | < 4.00 | Cc1nccn1CC(=O)CCc1ccccc1 [1-azolyl-4-phenyl-2-butanone, 15]
4 | 5.22 |  | OC(CCc1ccccc1)Cn1ccnc1 (stereo not drawn)
5 | < 4.00 | < 4.00 | O=C(CCc1ccccc1)Cn1nccn1 [1-azolyl-4-phenyl-2-butanone, 9]
6 | < 4.00 | < 4.00 | O=C(CCc1ccccc1)Cn1cccn1 [1-azolyl-4-phenyl-2-butanone, 5]
7 | < 4.00 | < 4.00 | CSc1nnn(CC(=O)CCc2ccccc2)n1 [1-azolyl-4-phenyl-2-butanone, 41]
8 | < 4.00 | < 4.00 | O=C(CCc1ccccc1)Cn1ccnc1-c1ccccc1 [1-azolyl-4-phenyl-2-butanone, 16]
9 | < 4.00 | < 4.00 | O=C(CCc1ccccc1)Cn1cnc(Br)c1 [1-azolyl-4-phenyl-2-butanone, 25]
10 | < 4.00 | < 4.00 | O=C(CCc1ccccc1)Cn1cnc(N(O)O)c1 [1-azolyl-4-phenyl-2-butanone, 26]
11 |  | < 4.00 | O=C(CCc1ccccc1)Cn1cnc(-c2ccccc2)c1 [1-azolyl-4-phenyl-2-butanone, 24]
12 | < 4.00 | < 4.00 | O=C(CCc1ccccc1)Cn1nnnc1-c1ccccc1 [1-azolyl-4-phenyl-2-butanone, 40]
13 | < 4.00 | < 4.00 | O=C(CCc1ccccc1)Cn1cnc(N(O)O)n1 [1-azolyl-4-phenyl-2-butanone, 32]
14 | < 4.00 | < 4.00 | CSc1ncn(CC(=O)CCc2ccccc2)n1 [1-azolyl-4-phenyl-2-butanone, 31]
15 |  | < 4.00 | O=C(CCc1ccccc1)Cn1cnc(-c2ccccc2)c1-c1ccccc1 [1-azolyl-4-phenyl-2-butanone, 21]
16 | < 4.00 | < 4.00 | O=C(CCc1ccccc1)Cn1nc2ccccc2n1 [1-azolyl-4-phenyl-2-butanone, 14]
17 | < 4.00 | < 4.00 | CSc1nnnn1CC(=O)CCc1ccccc1 [1-azolyl-4-phenyl-2-butanone, 38]
18 | < 4.00 | < 4.00 | O=C(CCc1ccccc1)Cn1cnc(Cl)c1Cl [1-azolyl-4-phenyl-2-butanone, 20]
19 | 4.05 | < 4.00 | O=C(CCc1ccccc1)Cn1ccnn1 [1-azolyl-4-phenyl-2-butanone, 8]

Row | Structure (SMILES) | pIC50 (Heme oxygenase 1) | pIC50 (Heme oxygenase 2)
20 | COOSc1ncnn1CC(=O)CCc1ccccc1 [1-azolyl-4-phenyl-2-butanone, 46] | < 4.00 | < 4.00
21 | O=C(CCc1ccccc1)Cn1ncnn1 [1-azolyl-4-phenyl-2-butanone, 11] |  | 4.52 and < 4.00
